Source: patent US8759340B2, “Benzodiazepinone compounds useful in the treatment of skin conditions” (The Regents of the University of Michigan, priority 2007, dated 2014)
Entries after “also recorded” stand apart in the source; their conditions may differ.

Key:
human keratinocytes (KC) = experiment: Keratinocyte proliferation assay; format: cell-based; conditions: Homo sapiens, Keratinocyte; for inhibition at 0.05 µM / inhibition at 0.1 µM / inhibition at 0.5 µM / inhibition at 1 µM / inhibition at 5 µM / inhibition at 10 µM: 48 h, KC, day 2, read-out: Percent Inhibition of Cells Per Concentration of Test Compound
Experimental: Epidermal keratinocytes were isolated from fresh tissue biopsies as described previously (Varani et al., (1994) J. Clin. Invest. 94:1747-1753). Primary and early passage cells were maintained in Keratinocyte Growth Medium (KGM) (Lonza). KGM contains the same basal medium as KBM but is further supplemented with a mixture of growth factors including 0.1 ng per mL EGF, 0.5 μg per mL insulin, and 0.4% bovine pituitary extract. In addition to using low-passage keratinocytes, we also used the HaCat line of immortalized human epidermal keratinocytes in some experiments. The immortalized keratinocytes were handled exactly as low-passage keratinocytes.
(§1) Keratinocyte proliferation was assessed by seeding 4×10^4 cells per well in a 24-well plate using KGM as culture medium. After the cells had attached (overnight), they were washed and triplicate samples were harvested for zero-time counts. DMSO served as a negative control. Proliferation was measured on day 2 by releasing the cells with trypsin/EDTA and enumerating them using a particle counter (Coulter Electronics, Hialeah, Fla.). Fibroblast proliferation studies were conducted in a similar manner except that […] was used as culture medium.
(§2) KC refers to human keratinocytes. HFF refers to human foreskin fibroblasts. The cLogP values were calculated using ChemDraw™ (CambridgeSoft).

[1] = system: human foreskin fibroblasts (HFF); experiment: Fibroblast proliferation assay; format: cell-based; conditions: Homo sapiens; for inhibition at 1 µM / inhibition at 0.05 µM / inhibition at 0.1 µM / inhibition at 0.5 µM / inhibition at 5 µM / inhibition at 10 µM: 48 h, HFF, day 2, read-out: Percent Inhibition of Cells Per Concentration of Test Compound
Experimental: Fibroblasts obtained from the same tissue were grown in monolayer culture using Dulbecco's modified minimal essential medium supplemented with nonessential amino acids and 10% fetal bovine serum (DMEM-FBS) as culture medium. Both keratinocytes and fibroblasts were maintained at 37° C. in an atmosphere of 95% air and 5% CO2. Cells were subcultured by exposure to trypsin/ethylenediamine tetraacetic acid (EDTA) and used at passage 2-4.
as §1, §2

[2] = system: RA-induced epidermal hyperplasia; experiment: Inhibition of RA-induced epidermal hyperplasia in human skin organ cultures; format: cell-based; conditions: for Percent Reduction in Retinoid-Induced Hyperplasia (%): reduction in epidermal thickness vs RA alone, n=3
Text: (§3) Replicate 6-mm punch biopsies of full-thickness psoriatic plaque skin were obtained from human skin donors with psoriasis. These biopsies were used in the transplant studies. Six-mm punch biopsies of sun-protected (hip) skin from non-psoriatic donors were obtained as controls. In addition, replicate 2-mm full-thickness punch biopsies of sun-protected hip skin were obtained from normal donors for use in organ culture studies.
(§4) Immediately upon biopsy, the replicate 2-mm punch biopsies (non-psoriatic skin only) were immersed in culture medium consisting of Keratinocyte Basal Medium (KBM) (Lonza, Walkersville, Md.). KBM is a low-Ca^2+, serum-free modification of MCDB-153 medium. It was supplemented with CaCl2 to bring the final Ca^2+ concentration to 1.4 mM. Biopsies were incubated in wells of a 24-well dish containing 400 μl of Ca^2+-supplemented KBM with or without additional treatments (RA and/or Compound H). Cultures were incubated at 37° C. in an atmosphere of 95% air and 5% CO2. Other than to maintain the tissue in a minimal volume of medium, nothing further was done to ensure a strict air-liquid interface. Incubation was for 8 days, with change of medium and fresh treatments provided every second day. At the end of the incubation period, tissue was fixed in 10% buffered formalin and examined histologically after staining with hematoxylin and eosin. Routinely, 3-6 tissue sections were prepared from each block. Epidermal thickness measurements were made at several sites in each tissue section (distance from the dermal-epidermal juncture to the top of the viable portion of the epithelium). The organ culture procedure employed here has been described in the past (Varani et al. (1993) Amer. J. Pathol. 142:189-198; and Varani et al., (1994) J. Clin. Invest. 94:1747-1753). In order to evaluate the toxicity of compound H, tissue was examined histologically and necrosis was assessed on a 0 to 4+ scale, with 0 indicating no change from control and 4+ indicating complete necrosis of the epidermis (n=6). Scores ≦1 were taken as normal.
The average epidermal thickness in the absence of RA was 70-90 μm, while the average epidermal thickness was 275 μm in cells exposed to RA.

[3] = system: Human Skin Organ Cultures; experiment: Toxicity (epidermal necrosis) in human skin organ cultures; format: cell-based; conditions: necrosis on 0 to 4+ scale, scores ≦1 normal, 8 days organ culture, n=6
Text: as §3, §4

Ramos cells = experiment: Cytotoxicity against Ramos cells; format: cell-based; conditions: Homo sapiens, read-out: EC50 in causing death of Ramos cells
Text: The compounds described herein can be tested for activity against F1F0-ATPase by measuring ATP synthesis and ATP hydrolysis. In addition, the compounds described herein can be evaluated for cytotoxicity against Ramos cells. Inhibition of ATP synthesis and hydrolysis by the F1F0-ATPase and cytotoxicity in Ramos cells can be measured as described in K. M. Johnson et al. in Chemistry & Biology (2005) Vol. 12, pp. 485-496.

SMILES | inhibition at 0.05 µM (human keratinocytes (KC)) [%] | inhibition at 0.1 µM (human keratinocytes (KC)) [%] | inhibition at 0.5 µM (human keratinocytes (KC)) [%] | inhibition at 1 µM (human keratinocytes (KC)) [%] | inhibition at 5 µM (human keratinocytes (KC)) [%] | inhibition at 10 µM (human keratinocytes (KC)) [%] | inhibition at 1 µM [1] [%] | inhibition at 0.05 µM ([1]; Fibroblast) [%] | inhibition at 0.1 µM ([1]; Fibroblast) [%] | inhibition at 0.5 µM ([1]; Fibroblast) [%] | inhibition at 5 µM ([1]; Fibroblast) [%] | inhibition at 10 µM ([1]; Fibroblast) [%] | further results
Cc1cccc(C)c1CC1N=C(c2ccc(O)cc2)c2cc(Cl)ccc2N(C)C1=O (stereo not drawn) [Compound 1, (Z)-7-chloro-3-(2,6-dimethylbenzyl)-5-(4-hydroxyphenyl)-1-methyl-1H-benzo[e][1,4]diazepin-2(3H)-one] | < 20 | < 20 | < 20 | ≥ 20 | ≥ 90 | ≥ 90 | < 20 | < 20 | < 20 | < 20 | ≥ 90 | ≥ 90 | EC50 (human keratinocytes (KC); based on the data from the cell proliferation assays, read-out: EC50 against proliferation of human keratinocyte cells): 0.7 ± 0.1 µM; EC50 ([1]; Fibroblast, based on the data from the cell proliferation assays, read-out: EC50 against proliferation of human foreskin fibroblasts): 1.4 ± 0.3 µM; Percent Reduction in Retinoid-Induced Hyperplasia (%) ([2]; 0.5 μM compound H): 40 + 10%; Percent Reduction in Retinoid-Induced Hyperplasia (%) ([2]; 1.0 μM compound H): 48 + 15%; Percent Reduction in Retinoid-Induced Hyperplasia (%) ([2]; 2.0 μM compound H): >95%; Toxicity ([3]; 0.5 μM compound H, listed as Compound H): no detectable toxicity; also recorded: None detected; Toxicity ([3]; 1.0 μM compound H, listed as Compound H): no detectable toxicity; also recorded: None detected; Toxicity ([3]; 2.0 μM compound H, listed as Compound H): 2.0 + 0.5; Toxicity ([3]; 2.0 μM compound H, listed as compound H): Slight toxicity
Cc1ccccc1CC1N=C(c2ccc(F)cc2)c2cc(Cl)ccc2NC1=O (stereo not drawn) [7-Chloro-5-(4-fluorophenyl)-3-(2-methylbenzyl)-1H-benzo[e][1,4]diazepin-2(3H)-one] | – | – | – | – | – | – | – | – | – | – | – | – | EC50 (Ramos cells): 7.9 µM
CCc1ccc(CC2N=C(c3ccc(F)cc3)c3cc(Cl)ccc3NC2=O)cc1CC (stereo not drawn) [Compound 11, (Z)-7-Chloro-3-(3,4-diethylbenzyl)-5-(4-fluorophenyl)-1H-benzo[e][1,4]diazepin-2(3H)-one] | < 20 | < 20 | < 20 | < 20 | ≥ 90 | ≥ 90 | < 20 | < 20 | < 20 | < 20 | < 20 | ≥ 90 | melting point: 88 to 90 °C
CC1=C(/C=C/C(C)=C/C=C/C(C)=C/C(=O)O)C(C)(C)CCC1 [RA, all-trans retinoic acid, reference compound] | – | – | – | – | – | – | – | – | – | – | – | – | average epidermal thickness ([2]; exposed to RA alone, 70-90 μm in the absence of RA): 275 μm
